Literature values in publication PMC3005221 (Biochemistry, 2010).
pKd: −log10 of the molar value.

Biological target: HDAC6 BUZ domain
Conditions: read-out: KD for HDAC6 BUZ domain (reported); full-length ubiquitin

pKd: 7.22
Substance: ubiquitin
